Measured values taken from patent US12616759B2, “Uses of labeled HSP90 inhibitors” (Sloan-Kettering Institute for Cancer Research, priority 2011, dated 2026).

Assays:
HSP90 = assay type: binding
[1] = test system: Akt, onco-proteins in MDA-MB-468 tumors; test: pharmacodynamic Western blot of MDA-MB-468 tumors; assay type: in vivo, mice
Experimental: Pharmacodynamic analyses. For protein analysis, tumors were homogenized in SDS lysis buffer (50 mM Tris, pH 7.4, 2% SDS) and subjected to Western blot analysis. Protein concentrations were determined using the BCA kit (Pierce) according to the manufacturer's instructions. Protein lysates (20-100 μg) were electrophoretically resolved by SDS/PAGE, transferred to nitrocellulose membrane, and probed with the indicated primary antibodies: Anti-Hsp90 from mouse (1:500, SPA-830; Stressgen), anti-Akt from rabbit (1:500, 9272; Cell Signaling), anti-phospho-Akt (Ser 473) from rabbit (1:500, 9271S; Cell Signaling), anti-PARP (p85 fragment) from rabbit (1:250, G7341; Promega). Membranes were then incubated with a 1:5,000 dilution of a peroxidase-conjugated corresponding secondary antibody. Equal loading of the protein samples was confirmed by parallel Western blots for β-actin (1:5,000, ab8227-50; Abcam). Detection was performed using the ECL Enhanced Chemiluminescence Detection System (Amersham Biosciences) according to the manufacturer's instructions.

[2] = test system: breast cancer tumor specimens; test: ex vivo fresh tissue sections of breast cancer patient tumors, apoptosis; assay type: cell-based, human
Text: Test ex vivo the sensitivity of BC samples to PU-H71.
Ex vivo sensitivity examination: Immediately following surgical removal of the mastectomy specimen the tissue is transported to the Tissue Procurement Services (TPS) area of the Pathology suite. Once the lesion is located, tissue is harvested under sterile conditions. The specimen size removed for evaluation is typically 5-10 mm×5-10 mm. Every effort is made to sample the most viable area. Distant from the lesion, a specimen of equivalent size is removed representative of normal breast epithelial tissue. Both specimens are placed in minimal essential media (MEM) with 1% penicillin/streptomycin. A small portion of the lesion and the entire piece of normal breast epithelial tissue undergo a “snap” freeze for future molecular evaluation by WB. The remaining portion of the lesion (mastectomy) is processed for pathological evaluation. For every lesion pathology provides IHC for receptor status, proliferation markers, epithelial markers and one hematoxylin/eosin (H&E) stained slide accompanied by 10 unstained to be further assessed for non-standard biomarkers (e.g. pAKT, BclxL, HSP90 and Hsp70).
From preliminary analyses we have learned that fresh tissue slicing provides a quick and more efficient ex vivo method for HSP90 inhibition evaluation than primary cell isolation. In addition, it preserves the cancer cells in the endogenous environment of the surrounding tissue. This is important since the interaction between stromal cells and tumor cells is known to play a major role in cancer growth and progression. In this method, the tissue (i.e. lesion) is placed in a plastic mold and embedded in 6% agarose. The agarose-embedded tissue is then mounted on the stage of the Vibratome that is submersed in a chilled reservoir (for tissue preservation) containing MEM with 1% penicillin/streptomycin. The tissue is then sliced using metal blades producing serial sections of the lesion that are 200 μm thick. Each section (minus the surrounding agarose-embedding media) is immediately placed in a 24-well tissue culture plate containing MEM with 1% penicillin/streptomycin. From a 5 mm×5 mm piece of tissue approximately 25 sections are produced. This allows for replicate analyses of tissue sections treated with a minimum of 4 doses of the HSP90 inhibitor and one with vehicle only. Replicates can be assayed by both IHC as well as viability assays (automatic plate reader or cytospin preparation) once tissue section undergoes enzymatic dissociation by brief exposure to dispase.
To date, forty-two specimens encompassing all BC subtypes have been acquired. Out of these, nine were of receptor status negative. […] Treatment of triple negative infiltrating ductal carcinoma (IDC) with PU-H71 attained, in a dose-dependent manner, apoptosis of both the primary tumors and lymph node metastases.

[3] = several HER2+, triple-negative and ER+ breast cancers

What does the source list for `CC(C)NCCCn1c(Sc2cc3c(cc2I)OCO3)nc2c(N)ncnc21` [PU-H71]?
fraction of total cellular HSP90 bound (HSP90): approximately 30%; Akt degradation, decrease ([1]; 5 mg/kg 3×week, 24 h after last dose): 57%; depletion of onco-proteins, level decrease ([1]; 1×week schedule, 24 h and 96 h after last dose): 95%; effect on normal and benign tissue ([2]; 48 hour exposure): remained unaltered; apoptosis ([2]; TNBC partly resistant group, 1-2.5 uM): ~50%; apoptosis ([2]; TNBC sensitive group, 1 uM): 100%; apoptosis ([2]; TNBC very sensitive group, 0.5 uM): 100%; apoptosis ([2]; resistant, PT #14): no apoptosis noted at any of the tested concentrations; concentration inducing about 50% apoptosis [2, 3]: 0.05 µM; concentration inducing about 100% apoptosis [2, 3]: 0.5 µM
